Data on one molecule can be found in article PMC7991022, “Optimization of extracellular ethanol-tolerant β-glucosidase production from a newly isolated Aspergillus sp. DHE7 via solid state fermentation using jojoba meal as substrate: purification and biochemical characterization for biofuel preparation” (Journal of Genetic Engineering & Biotechnology, 2021).

The experiment concerns T1, Aspergillus sp. DHE7 β-glucosidase.
T1 construct: gene beta-D-glucosidase; native extracellular enzyme purified from solid-state culture (jojoba meal): ethanol precipitation, DEAE-Sephadex A-50, Sephadex G-100; monomer, 135 kDa by SDS-PAGE
Description: p-nitrophenol release at […] nm, Lineweaver-Burk plot. In kind it is biochemical. Conditions: pH 6.0, 60 °C, 50 mM Na-citrate; 0.25 to 20 mM substrate; apparent Km.

`O=[N+]([O-])c1ccc(O[C@@H]2O[C@H](CO)[C@@H](O)[C@H](O)[C@H]2O)cc1` [p-nitrophenyl-β-D-glucopyranoside]: the Km is 400 µM.

One may read the Km as the substrate concentration at which the rate is half of its maximum.
